Source: US8226943B2, “Antibodies to notch receptors” (OncoMed Pharmaceuticals, Inc., priority 2008, dated 2012)

Assays:
M4 melanoma tumor cells = assay: M4 melanoma xenograft growth; assay type: in vivo, NOD-SCID mice; conditions: 10 mg/kg twice per week
Protocol: M4 melanoma tumor cells (10,000 cells per mouse) were injected subcutaneously into the flank region of NOD-SCID mice. Tumors were allowed to grow for 25 days until they had reached an average volume of ˜80 mm^3. Animals were randomized into treatment groups (n=10/group) and treatments were initiated. One group received a control antibody (1B711) at 10 mg/kg twice per week and one group received 59R1 at 10 mg/kg twice per week. Tumor volumes were measured on the indicated days.

[1] = tested on: colon tumor xenograft line OMP-C8; assay: OMP-C8 colon tumor xenograft growth; assay type: in vivo, NOD/SCID mice; conditions: established tumors, 15 mg/kg once a week
Protocol: (§1) The 59R1 IgG2 antibody was also tested in vivo in the breast tumor xenograft lines OMP-B34, OMP-B39, OMP-B44, PE13, and UM-T1, the pancreas tumor xenograft line OMP-PN8, and the colon tumor xenograft line OMP-C8. These tumor xenograft lines were established by adhering to procedures described in Al-Hajj et al., 2003, Proc. Natl. Acad. Sci. USA, 100:3983-3988. Female NOD/SCID immuno-compromised mice 7-10 weeks old were used for the establishment of the breast tumor xenografts and male NOD/SCID mice were used for the OMP-Pn8 and OMP-C8 tumor-models (Harlan, Indianapolis, Ind.). The 59R1 IgG2 antibody was also tested in vivo in a Colo-205 colon tumor xenograft model. Female immunodeficient bg/nu XID mice on a Swiss CD-1 background were used for the Colo-205 xenograft tumor model. In case of the breast cancer models, slow-releasing estrogen pellets (0.36 mg) had to be implanted. Mice were subcutaneously injected on the right flank with 50,000 (OMP-B34, OMP-B39, OMP-B44, PE13, and UM-T1) or 1×10^7 (Colo-205) viable cells, respectively, in a mixture of PBS (without magnesium or calcium) and Matrigel at a 1:1 ratio. […] Antibodies were administered weekly and tumors measured twice weekly. […] Tumor volume was calculated as described Al-Hajj et al. (2003). Data are expressed as the mean and the mean±S.E.M. Group means were compared using Student's two-tailed, unpaired t-test. […]

[2] = tested on: breast tumor xenograft line OMP-B34; assay: OMP-B34 breast tumor xenograft growth; assay type: in vivo, NOD/SCID mice; conditions: established tumors, 15 mg/kg once a week
Protocol: as §1

[3] = tested on: breast tumor xenograft line OMP-B44; assay: OMP-B44 breast tumor xenograft growth; assay type: in vivo, NOD/SCID mice; conditions: established tumors, 15 mg/kg once a week
Protocol: as §1

[4] = tested on: breast tumor xenograft line UM-T1; assay: UM-T1 breast tumor xenograft growth; assay type: in vivo, NOD/SCID mice
Protocol: as §1

stroma of PE13 tumors = assay: Microarray gene expression in stroma of treated xenograft tumors, PE13; assay type: in vivo, mice; conditions: 59R1 vs control
[5] = tested on: stroma from the xenograft models Colo205, B29, B34, B44, PE13, T1, C8, and PN8; assay: TaqMan analysis of stromal gene expression in xenograft models; assay type: in vivo, mice
From the text: The expression levels in the stroma from the xenograft models Colo205, B29, B34, B44, PE13, T1 (without estrogen treatment), T1 (with estrogen treatment), C8, and PN8 of selected genes that had been identified in the microarray analysis as being regulated by treatment with 59R1 (heyl, notch3, rgs5, angpt1, and angpt2) were further analyzed by TaqMan® analysis. The results are shown in FIGS. 12A (heyl), 12B (notch3), 12C (rgs5), 12D (angpt1), and 12E (angpt2).

[6] = tested on: Colo-205 colon tumors and PE-13 breast tumors; assay: Pimonidazole staining for hypoxic regions in treated tumors; assay type: in vivo, mice
Protocol: Staining for hypoxic regions was performed in Colo-205 colon tumors and PE-13 breast tumors that had been treated either with 59R1 IgG2 antibody or with 1B711 control antibody. The staining was performed as described in Ridgway et al., 2006, Nature 444:1083-1087. Briefly, to measure hypoxia, pimonidazole-hydrochloride (HypoxyProbe, NPI, Burlington, Mass.), which forms long-lived protein adducts at partial pressure of oxygen less than approximately 10 mm Hg, was injected intraperitoneally at 60 mg/kg 1 hr prior to sacrifice. Tumors were then processed for histological analysis, and tumor sections were stained using anti-pimonidazole antibody following manufacturer's protocol (NPI). Photographs were taken using a BX51 microscope (Olympus, Center Valley, Pa.).
AF594-conjugated goat anti-rat F(ab′)2 was used to detect anti-CD31 antibody and FITC-conjugated goat anti-rabbit antibody was used to detect anti-pimonidazole antibody.

stroma of Colo205 tumors = assay: Microarray gene expression in stroma of treated xenograft tumors, Colo205; assay type: in vivo, mice; conditions: 59R1 vs control
murine Notch2 = assay: DLL4-Fc induced receptor activation in transfected PC3 cells, murine Notch2; assay type: cell-based, mouse; conditions: immobilized DLL4-Fc
Protocol: 59R5 was determined to have similar activity in blocking Notch2 and Notch3 signaling as 59R1. Receptor activation was determined in luciferase-based assays. PC3 tumor cells were transiently transfected with a human or mouse Notch receptor (human Notch2, murine Notch2, human Notch3, or murine Notch3) and […] inducible reporter construct. Transfected cells were incubated with different concentrations of 59R1 or 59R5 antibody in the presence of passively immobilized DLL4-Fc protein. Notch receptor activation was determined by measuring luciferase activity.

[7] = each of the various tumor types, relative to control

59R1: human IgG2 antibody binding Notch2 and Notch3; heavy and light chain SEQ ID NO:16 and 18; ATCC PTA-9547
M4 melanoma tumor growth (M4 melanoma tumor cells): inhibited
C8 tumor growth relative to LZ1 control antibody [1]: inhibit tumor growth
B34 breast cancer growth relative to control antibody [2]: inhibit breast cancer growth
B44 breast cancer growth relative to control antibody [3]: inhibit breast cancer growth
T1 breast tumor growth ([4]; in the absence of estrogen treatment): ineffective
T1 breast tumor growth ([4]; in the presence of estrogen, 15 mg/kg once a week): effective at inhibiting tumor growth
Fold 1416286_at (Rgs4) (stroma of PE13 tumors): −1.83
Fold 1417466_at (Rgs5) (stroma of PE13 tumors): −4.03
Fold 1417714_x_at (Hba-al/Hba-a2) (stroma of PE13 tumors): −1.92
Fold 1418829_a_at (Eno2) (stroma of PE13 tumors): 1.54
Fold 1419302_at (Heyl) (stroma of PE13 tumors): −1.77
Fold 1420872_at (Gucy1b3) (stroma of PE13 tumors): −3.06
Fold 1420941_at (Rgs5) (stroma of PE13 tumors): −2.99
Fold 1420942_s_at (Rgs5) (stroma of PE13 tumors): −4.23
Fold 1421964_at (Notch3) (stroma of PE13 tumors): −1.91
Fold 1422789_at (Aldh1a2) (stroma of PE13 tumors): −2.17
Fold 1428361_x_at (Hba-al/Hba-a2) (stroma of PE13 tumors): −1.73
Fold 1434141_at (Gucy1a3) (stroma of PE13 tumors): −4.18
Fold 1449280_at (Esm1) (stroma of PE13 tumors): 1.56
Fold 1449632_s_at (Fkbp10) (stroma of PE13 tumors): −1.63
Fold 1451501_a_at (Ghr) (stroma of PE13 tumors): −1.66
Fold 1452590_a_at (Plac9) (stroma of PE13 tumors): −1.62
Fold 1459713_s_at (Tmem16a) (stroma of PE13 tumors): −7.28
effect on down-regulation of angiopoietin-1 and angiopoietin-2 in the stroma of the T1 tumor ([5]; absence of estrogen treatment (T1 ne)): abrogated
angiopoietin-1 (angpt1) expression in stroma (TaqMan) ([5]; breast cancer models): down-regulated in the stroma of a number of the breast cancer models
angiopoietin-2 (angpt2) expression in stroma (TaqMan) ([5]; breast cancer models): down-regulated in the stroma of a number of the breast cancer models
notch3 expression in stroma (TaqMan) [5, 7]: down-regulated
rgs5 expression in stroma (TaqMan) [5, 7]: down-regulated
angpt1 and angpt2 expression in the stroma of the T1 model ([5]; estrogen treatment used (T1 e)): down-regulated
heyl expression in stroma (TaqMan) ([5]; xenograft models, relative to control): downregulated in the stroma of each of the xenograft models except B34
hypoxic regions (anti-pimonidazole antibody) versus 1B711 treated tumors ([6]; Colo-205 and PE13 tumors): significantly more pronounced
number of CD31-positive cells ([6]; treated tumors versus 1B711): remained unchanged
Fold 1416286_at (Rgs4) (stroma of Colo205 tumors): −3.08
Fold 1418829_a_at (Eno2) (stroma of Colo205 tumors): 1.79
Fold 1419302_at (Heyl) (stroma of Colo205 tumors): −3.28
Fold 1420941_at (Rgs5) (stroma of Colo205 tumors): −5.10
Fold 1422789_at (Aldh1a2) (stroma of Colo205 tumors): −1.73
Fold 1428361_x_at (Hba-al/Hba-a2) (stroma of Colo205 tumors): −8.91
Fold 1449280_at (Esm1) (stroma of Colo205 tumors): 2.07
Fold 1449632_s_at (Fkbp10) (stroma of Colo205 tumors): −1.72
Fold 1459713_s_at (Tmem16a) (stroma of Colo205 tumors): −1.90

59R5: human antibody that specifically binds human Notch 2 and human Notch 3; heavy and light chain SEQ ID NO:49 and 18; ATCC PTA-10170
ligand-induced activation of murine Notch2 receptor signaling (murine Notch2): blocked
